Test results published in the Kinase Knowledgebase extract (Sharma et al. 2016).

biological target: PIK3CA (human) (UniProt P42336); test: Assessment of PIK3CA Kinase Activity
Sequence (P42336 whole entry, looked up): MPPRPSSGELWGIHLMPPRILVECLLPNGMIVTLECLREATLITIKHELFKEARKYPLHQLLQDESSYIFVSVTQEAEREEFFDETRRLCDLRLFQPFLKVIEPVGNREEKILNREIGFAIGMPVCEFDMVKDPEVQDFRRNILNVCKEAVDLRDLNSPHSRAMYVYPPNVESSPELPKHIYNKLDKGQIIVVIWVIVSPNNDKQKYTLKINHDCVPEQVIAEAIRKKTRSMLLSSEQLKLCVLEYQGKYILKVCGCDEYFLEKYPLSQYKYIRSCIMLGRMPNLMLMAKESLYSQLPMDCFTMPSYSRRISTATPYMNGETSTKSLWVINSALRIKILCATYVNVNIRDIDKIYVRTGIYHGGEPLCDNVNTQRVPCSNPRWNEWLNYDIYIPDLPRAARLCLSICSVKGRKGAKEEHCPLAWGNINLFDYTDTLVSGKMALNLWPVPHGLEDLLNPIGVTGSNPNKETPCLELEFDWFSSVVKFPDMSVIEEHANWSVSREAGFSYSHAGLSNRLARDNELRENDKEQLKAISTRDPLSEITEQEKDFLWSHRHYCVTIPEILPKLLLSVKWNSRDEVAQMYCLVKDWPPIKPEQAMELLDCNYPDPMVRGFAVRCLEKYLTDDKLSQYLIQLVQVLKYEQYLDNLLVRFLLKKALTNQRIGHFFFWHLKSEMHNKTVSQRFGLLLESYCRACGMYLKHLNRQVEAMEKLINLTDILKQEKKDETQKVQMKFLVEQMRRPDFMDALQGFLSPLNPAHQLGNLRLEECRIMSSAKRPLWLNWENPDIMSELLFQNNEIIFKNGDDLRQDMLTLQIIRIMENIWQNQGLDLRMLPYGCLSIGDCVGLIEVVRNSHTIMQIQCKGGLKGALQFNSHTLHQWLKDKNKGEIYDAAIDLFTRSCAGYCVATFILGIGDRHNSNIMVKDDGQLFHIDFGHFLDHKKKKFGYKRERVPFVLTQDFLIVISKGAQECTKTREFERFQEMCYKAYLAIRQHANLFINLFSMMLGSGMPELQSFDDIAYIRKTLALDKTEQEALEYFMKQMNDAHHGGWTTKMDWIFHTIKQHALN

Compound	IC50
CN(C)C(=O)c1ccc(NC(=O)Nc2ccc(-c3nc(N4CCOCC4)c4ccc(-c5cccc(N(C)C)c5)cc4n3)cc2)cc1	< 50 nM
CN(C)C(=O)c1ccc(NC(=O)Nc2ccc(-c3nc(N4CCOCC4)c4ccc(-c5cccc(F)c5)cc4n3)cc2)cc1	50 to 200 nM
CN(C)C1CCN(C(=O)c2ccc(NC(=O)Nc3ccc(-c4nc(N5CCOCC5)c5ccc(-c6cccnc6F)cc5n4)cn3)cc2)CC1	< 50 nM
COc1ncccc1-c1ccc2c(N3CCOCC3)nc(-c3ccc(NC(=O)Nc4ccc(C(=O)N(C)C)cc4)cc3F)nc2c1	50 to 200 nM
CN(C)C(=O)c1ccc(NC(=O)Nc2ccc(-c3nc(N4CCOCC4)c4ccc(-c5cnn(C)c5)cc4n3)cc2F)cc1	< 50 nM
CN(C)C(=O)c1ccc(NC(=O)Nc2ccc(-c3nc(N4CCOCC4)c4ccc(-c5ccc(C(=O)N(C)C)o5)cc4n3)cc2)cc1	< 50 nM
COc1ncc(-c2ccc3c(N4CCOCC4)nc(-c4ccc(NC(=O)Nc5ccc(C(=O)N(C)C)cc5)nc4)nc3c2)cn1	< 50 nM
Cc1noc(C)c1-c1ccc2c(N3CCOCC3)nc(-c3ccc(NC(=O)Nc4ccc(C(=O)N(C)C)cc4)c(F)c3)nc2c1	< 50 nM
COc1ncc(-c2cnc3c(N4CCOCC4)nc(-c4ccc(NC(=O)Nc5ccc(C(=O)N(C)C)cc5)c(F)c4)nc3c2)cn1	< 50 nM
CN(C)[C@@H]1CCN(C(=O)c2ccc(NC(=O)Nc3ccc(-c4nc(N5CCOCC5)c5ccc(C(C)(C)O)cc5n4)cc3)cc2)C1	50 to 200 nM
CN(C)C(=O)c1ccc(NC(=O)Nc2ccc(-c3nc(N4CCOCC4)c4cc(F)c(-c5cccnc5F)cc4n3)cc2)cc1	< 50 nM
COc1ccc(-c2ccc3c(N4CCOCC4)nc(-c4ccc(NC(=O)Nc5ccc(C(=O)N(C)C)cc5)cc4F)nc3c2)cn1	50 to 200 nM
CN(C)C(=O)c1ccc(NC(=O)Nc2ccc(-c3nc(N4CCOCC4)c4ncc(-c5cnc(N(C)C)nc5)cc4n3)cc2)cc1	< 50 nM
COc1ccncc1-c1ccc2c(N3CCOCC3)nc(-c3ccc(NC(=O)Nc4ccc(C(=O)N(C)C)cc4)cc3)nc2c1	< 50 nM
CN(C)C1CCN(C(=O)c2ccc(NC(=O)Nc3ccc(-c4nc(N5CCOCC5)c5ncc(-c6cnn(C)c6)cc5n4)cc3)cc2)CC1	< 50 nM
CN(C)C(=O)c1ccc(NC(=O)Nc2ccc(-c3nc(N4CCOCC4)c4ccc(-c5cnc(N(C)C)nc5)cc4n3)cc2)cc1	< 50 nM
CN(C)C(=O)c1ccc(NC(=O)Nc2ccc(-c3nc(N4CCOCC4)c4ccc(-c5cnn(C)c5)cc4n3)cc2)cc1	< 50 nM
Cc1ccncc1-c1ccc2c(N3CCOCC3)nc(-c3ccc(NC(=O)Nc4ccc(C(=O)N(C)C)cc4)cc3)nc2c1	< 50 nM
CN(C)C(=O)c1ccc(NC(=O)Nc2cc(F)c(-c3nc(N4CCOCC4)c4ccc(-c5cncnc5)cc4n3)cc2F)cc1	50 to 200 nM
CN(C)C(=O)c1ccc(NC(=O)Nc2ccc(-c3nc(N4CCOCC4)c4ncc(-c5cccnc5)cc4n3)cc2)c(F)c1	< 50 nM
CN(C)CCN(C)C(=O)c1ccc(NC(=O)Nc2ccc(-c3nc(N4CCOCC4)c4ccc(-c5ccco5)cc4n3)cc2)cc1	< 50 nM
CN(C)[C@H]1CCN(C(=O)c2ccc(NC(=O)Nc3ccc(-c4nc(N5CCOCC5)c5ccc(-c6cncnc6)cc5n4)cc3)cc2)C1	< 50 nM
CN(C)[C@H]1CCN(C(=O)c2ccc(NC(=O)Nc3ccc(-c4nc(N5CCOCC5)c5ncc(-c6cnn(C)c6)cc5n4)cc3F)cc2)C1	< 50 nM
Cc1ccc(-c2ccc3c(N4CCOCC4)nc(-c4ccc(NC(=O)Nc5ccc(C(=O)N(C)C)cc5)cc4)nc3c2)s1	50 to 200 nM
CN(C)C(=O)c1ccc(NC(=O)Nc2ccc(-c3nc(N4CCOCC4)c4ccccc4n3)cc2)cc1	50 to 200 nM
CN(C)C(=O)c1ccc(NC(=O)Nc2ccc(-c3nc(N4CCOCC4)c4ccc(-c5ccccn5)cc4n3)c(F)c2)cc1	< 50 nM

Compound	IC50
CN(C)C(=O)c1ccc(NC(=O)Nc2ccc(-c3nc(N4CCOCC4)c4ccc(-c5ccncc5)cc4n3)cc2)cc1	< 50 nM
CN(C)C(=O)c1ccc(NC(=O)Nc2ccc(-c3nc(N4CCOCC4)c4ccc(-c5ccsc5)cc4n3)cc2)cc1	< 50 nM
CN(C)C(=O)c1ccc(NC(=O)Nc2ccc(-c3nc(N4CCOCC4)c4ccc(-c5cncnc5)cc4n3)cc2)cc1F	< 50 nM
CC(=O)Nc1ccc(NC(=O)Nc2ccc(-c3nc(N4CCOCC4)c4ccc(-c5ccc(C)o5)cc4n3)cc2)cc1	50 to 200 nM
COc1ccc(-c2ccc3c(N4CCOCC4)nc(-c4ccc(NC(=O)Nc5ccc(C(=O)N(C)C)cc5F)cc4)nc3c2)cn1	< 50 nM
CN(C)C(=O)c1ccc(NC(=O)Nc2ccc(-c3nc(N4CCOCC4)c4ccc(-c5ccc(N)nc5)cc4n3)cc2)cc1	< 50 nM
CN1CCN(C(=O)c2ccc(NC(=O)Nc3ccc(-c4nc(N5CCOCC5)c5ccc(-c6cccc(S(C)(=O)=O)c6)cc5n4)cc3)cc2)CC1	< 50 nM
Cc1ccc(-c2ccc3c(N4CCOCC4)nc(-c4ccc(NC(=O)Nc5ccc(C(=O)N(C)C)cc5)nc4)nc3c2)o1	< 50 nM
CN(C)C(=O)c1ccc(NC(=O)Nc2ccc(-c3nc(N4CCOCC4)c4ccc(-c5ccoc5)cc4n3)cc2)cc1	50 to 200 nM
CN(C)C(=O)c1ccc(NC(=O)Nc2ccc(-c3nc(N4CCOCC4)c4ccc(-c5ccnc(F)c5)cc4n3)cc2)cc1	< 50 nM
CN(C)C(=O)c1ccc(NC(=O)Nc2ccc(-c3nc(N4CCOCC4)c4ccc(-c5ccco5)cc4n3)cc2)c(F)c1	< 50 nM
CN(C)C(=O)c1ccc(NC(=O)Nc2ccc(-c3nc(N4CCOCC4)c4ccc(-c5cccnc5F)cc4n3)cc2)cn1	50 to 200 nM
CN(C)CC(=O)Nc1cncc(-c2ccc3c(N4CCOCC4)nc(-c4ccc(NC(=O)Nc5ccc(C(=O)N(C)C)cc5)cc4)nc3c2)c1	< 50 nM
CN(C)C(=O)c1ccc(NC(=O)Nc2ccc(-c3nc(N4CCOCC4)c4ccc(-c5cccnc5)cc4n3)c(F)c2)cc1	< 50 nM
CN(C)C(=O)c1ccc(NC(=O)Nc2ccc(-c3nc(N4CCOCC4)c4ncc(-c5cncnc5)cc4n3)c(F)c2)cc1	< 50 nM
N[C@H]1CCN(C(=O)c2ccc(NC(=O)Nc3ccc(-c4nc(N5CCOCC5)c5ccc(-c6ccco6)cc5n4)cc3)cc2)C1	< 50 nM
CN(C)C(=O)c1ccc(NC(=O)Nc2ccc(-c3nc(N4CCOCC4)c4ncc(-c5cncnc5)cc4n3)cc2)cc1F	< 50 nM
CC(=O)Nc1ccc(NC(=O)Nc2ccc(-c3nc(N4CCOCC4)c4ccc(-c5cncnc5)cc4n3)cc2)cc1	< 50 nM
CN(C)C(=O)c1ccc(NC(=O)Nc2ccc(-c3nc(N4CCOCC4)c4ccc(-c5ccc(CO)o5)cc4n3)cc2F)cc1	< 50 nM
CN(C)C(=O)c1ccc(NC(=O)Nc2ccc(-c3nc(N4CCOCC4)c4ccc(-c5ccco5)cc4n3)cc2)cc1F	50 to 200 nM
N[C@H]1CCN(C(=O)c2ccc(NC(=O)Nc3ccc(-c4nc(N5CCOCC5)c5ccc(-c6cncnc6)cc5n4)cc3)cc2)C1	< 50 nM
Cc1ccc(-c2ccc3c(N4CCOCC4)nc(-c4ccc(NC(=O)Nc5ccc(C(=O)NCCN(C)C)cc5)cc4)nc3c2)o1	50 to 200 nM
CN(C)C(=O)c1ccc(NC(=O)Nc2ccc(-c3nc(N4CCOCC4)c4ccc(-c5ccco5)cc4n3)cn2)cc1	< 50 nM
CN(C)C(=O)c1ccc(NC(=O)Nc2ccc(-c3nc(N4CCOCC4)c4ccc(-c5cnn(C)c5)cc4n3)cn2)c(F)c1	< 50 nM
CN(C)C1CCN(C(=O)c2ccc(NC(=O)Nc3ccc(-c4nc(N5CCOCC5)c5ccc(C(C)(C)O)cc5n4)cc3)cc2)CC1	< 50 nM
CN(C)C(=O)c1ccc(NC(=O)Nc2ccc(-c3nc(N4CCOCC4)c4ncc(-c5cnn(C)c5)cc4n3)cc2F)cc1	< 50 nM
